Reference: ChEMBL document CHEMBL1938230, “6-Position optimization of tricyclic 4-quinolone-based inhibitors of glycogen synthase kinase-3β: discovery of nitrile derivatives with picomolar potency” (Bioorg Med Chem Lett, 2012)
Values after ≈ are worked out from the molar mass of the structure shown.

Legend:
[1] = target: Tyrosine-protein kinase Fer (Homo sapiens) (UniProt P16591); test: Inhibition of human FER in HL-60 cells lysate assessed as reduction of labeling of acyl-phosphate ATP probe at 100 nM; format: cell-free
Chain of Tyrosine-protein kinase Fer (Homo sapiens) (P16591 whole entry, looked up): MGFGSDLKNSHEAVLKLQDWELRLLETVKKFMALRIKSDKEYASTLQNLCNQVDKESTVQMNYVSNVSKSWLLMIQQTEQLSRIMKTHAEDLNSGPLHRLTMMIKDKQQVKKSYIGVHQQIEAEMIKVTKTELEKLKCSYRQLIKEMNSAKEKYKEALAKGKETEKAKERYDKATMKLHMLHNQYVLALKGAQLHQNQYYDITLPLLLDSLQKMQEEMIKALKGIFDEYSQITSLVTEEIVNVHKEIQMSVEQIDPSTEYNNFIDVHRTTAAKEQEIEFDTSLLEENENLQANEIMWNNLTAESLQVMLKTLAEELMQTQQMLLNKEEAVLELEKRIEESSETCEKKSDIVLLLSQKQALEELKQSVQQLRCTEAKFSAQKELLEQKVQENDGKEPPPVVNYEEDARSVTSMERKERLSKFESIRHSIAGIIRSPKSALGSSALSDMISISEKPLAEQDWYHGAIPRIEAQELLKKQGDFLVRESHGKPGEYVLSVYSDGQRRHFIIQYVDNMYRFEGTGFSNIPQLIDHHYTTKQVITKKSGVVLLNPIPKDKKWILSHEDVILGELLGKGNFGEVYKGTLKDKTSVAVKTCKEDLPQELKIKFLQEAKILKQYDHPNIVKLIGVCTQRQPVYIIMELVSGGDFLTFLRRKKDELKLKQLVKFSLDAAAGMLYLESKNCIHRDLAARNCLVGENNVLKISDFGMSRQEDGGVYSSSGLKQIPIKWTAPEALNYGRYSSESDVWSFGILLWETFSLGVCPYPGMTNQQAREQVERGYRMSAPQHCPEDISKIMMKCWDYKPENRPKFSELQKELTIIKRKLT

[2] = target: Mitogen-activated protein kinase kinase kinase kinase 5 (Homo sapiens) (UniProt Q9Y4K4); test: Inhibition of human KHS1 in HL-60 cells lysate assessed as reduction of labeling of acyl-phosphate ATP probe at 100 nM; format: cell-free
[3] = target: T1, Mitogen-activated protein kinase kinase kinase 5 (Homo sapiens) (UniProt Q99683); test: Inhibition of human MAP3K5 in HL-60 cells lysate assessed as reduction of labeling of acyl-phosphate ATP probe at 100 nM; format: cell-free
T1 sequence (whole entry): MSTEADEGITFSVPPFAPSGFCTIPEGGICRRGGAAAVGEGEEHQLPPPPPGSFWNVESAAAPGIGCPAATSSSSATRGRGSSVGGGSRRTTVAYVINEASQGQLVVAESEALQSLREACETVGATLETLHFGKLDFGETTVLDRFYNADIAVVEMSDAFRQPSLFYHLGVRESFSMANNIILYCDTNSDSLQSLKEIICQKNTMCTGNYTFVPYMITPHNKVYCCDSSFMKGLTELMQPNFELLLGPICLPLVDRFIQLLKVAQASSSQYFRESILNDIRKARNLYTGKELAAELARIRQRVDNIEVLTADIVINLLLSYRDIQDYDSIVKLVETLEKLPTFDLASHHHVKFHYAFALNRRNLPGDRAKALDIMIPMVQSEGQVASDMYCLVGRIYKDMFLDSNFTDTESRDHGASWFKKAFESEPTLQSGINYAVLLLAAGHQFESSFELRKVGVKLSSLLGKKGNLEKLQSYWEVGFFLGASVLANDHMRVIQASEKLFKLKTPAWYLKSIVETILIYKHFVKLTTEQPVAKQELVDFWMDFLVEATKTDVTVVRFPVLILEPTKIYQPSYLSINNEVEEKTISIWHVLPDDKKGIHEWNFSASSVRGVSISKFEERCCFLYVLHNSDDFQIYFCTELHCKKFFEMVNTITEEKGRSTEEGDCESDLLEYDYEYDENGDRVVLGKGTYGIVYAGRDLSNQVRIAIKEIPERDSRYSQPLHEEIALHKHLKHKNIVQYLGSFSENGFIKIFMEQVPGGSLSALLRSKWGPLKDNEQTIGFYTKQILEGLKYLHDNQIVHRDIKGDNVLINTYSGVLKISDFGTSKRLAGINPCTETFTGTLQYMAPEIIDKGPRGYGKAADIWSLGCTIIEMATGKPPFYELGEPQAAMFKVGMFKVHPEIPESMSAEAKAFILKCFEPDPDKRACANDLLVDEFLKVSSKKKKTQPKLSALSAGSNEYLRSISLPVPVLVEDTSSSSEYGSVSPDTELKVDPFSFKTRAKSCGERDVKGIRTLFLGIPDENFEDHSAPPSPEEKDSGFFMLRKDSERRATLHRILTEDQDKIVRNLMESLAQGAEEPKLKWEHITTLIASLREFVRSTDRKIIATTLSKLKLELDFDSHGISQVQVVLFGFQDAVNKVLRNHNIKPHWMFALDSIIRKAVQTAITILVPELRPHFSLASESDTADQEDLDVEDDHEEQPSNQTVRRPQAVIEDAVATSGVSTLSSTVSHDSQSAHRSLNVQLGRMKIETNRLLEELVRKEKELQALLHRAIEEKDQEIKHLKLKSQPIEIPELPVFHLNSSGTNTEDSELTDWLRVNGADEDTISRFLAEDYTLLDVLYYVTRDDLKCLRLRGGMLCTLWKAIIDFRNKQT

[4] = target: T2, Inhibitor of nuclear factor kappa-B kinase subunit epsilon (Homo sapiens) (UniProt Q14164); test: Inhibition of human IKKepsilon in HL-60 cells lysate assessed as reduction of labeling of acyl-phosphate ATP probe at 100 nM; format: cell-free
T2 sequence (whole entry): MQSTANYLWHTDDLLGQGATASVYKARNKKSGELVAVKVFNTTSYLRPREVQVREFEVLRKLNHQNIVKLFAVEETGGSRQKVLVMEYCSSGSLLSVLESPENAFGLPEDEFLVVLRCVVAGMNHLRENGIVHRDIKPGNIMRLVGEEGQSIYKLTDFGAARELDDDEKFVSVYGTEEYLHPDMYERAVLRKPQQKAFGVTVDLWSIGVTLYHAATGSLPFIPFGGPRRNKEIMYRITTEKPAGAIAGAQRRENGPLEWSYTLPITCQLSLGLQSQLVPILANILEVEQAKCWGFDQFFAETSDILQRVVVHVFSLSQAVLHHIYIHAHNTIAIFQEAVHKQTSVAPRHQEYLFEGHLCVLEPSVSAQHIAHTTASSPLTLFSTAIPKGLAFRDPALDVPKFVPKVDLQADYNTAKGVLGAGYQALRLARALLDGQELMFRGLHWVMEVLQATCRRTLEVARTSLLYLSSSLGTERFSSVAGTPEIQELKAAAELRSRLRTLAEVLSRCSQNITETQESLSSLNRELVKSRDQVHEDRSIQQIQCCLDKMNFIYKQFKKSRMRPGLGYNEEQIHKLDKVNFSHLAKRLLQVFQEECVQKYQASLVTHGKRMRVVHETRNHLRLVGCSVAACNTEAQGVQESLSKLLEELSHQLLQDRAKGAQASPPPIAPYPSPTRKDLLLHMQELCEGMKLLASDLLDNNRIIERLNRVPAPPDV

[5] = system: Escherichia coli; test: Antibacterial activity against Escherichia coli ATCC 8739; format: ADME, organism-based
[6] = target: Mitogen-activated protein kinase kinase kinase kinase 1 (Homo sapiens) (UniProt Q92918); test: Inhibition of human HPK1 in HL-60 cells lysate assessed as reduction of labeling of acyl-phosphate ATP probe at 100 nM; format: cell-free
[7] = target: Tyrosine-protein kinase Fes/Fps (Homo sapiens) (UniProt P07332); test: Inhibition of human FES in HL-60 cells lysate assessed as reduction of labeling of acyl-phosphate ATP probe at 100 nM; format: cell-free
Chain of Tyrosine-protein kinase Fes/Fps (Homo sapiens) (P07332 whole entry, the tested form may be a part): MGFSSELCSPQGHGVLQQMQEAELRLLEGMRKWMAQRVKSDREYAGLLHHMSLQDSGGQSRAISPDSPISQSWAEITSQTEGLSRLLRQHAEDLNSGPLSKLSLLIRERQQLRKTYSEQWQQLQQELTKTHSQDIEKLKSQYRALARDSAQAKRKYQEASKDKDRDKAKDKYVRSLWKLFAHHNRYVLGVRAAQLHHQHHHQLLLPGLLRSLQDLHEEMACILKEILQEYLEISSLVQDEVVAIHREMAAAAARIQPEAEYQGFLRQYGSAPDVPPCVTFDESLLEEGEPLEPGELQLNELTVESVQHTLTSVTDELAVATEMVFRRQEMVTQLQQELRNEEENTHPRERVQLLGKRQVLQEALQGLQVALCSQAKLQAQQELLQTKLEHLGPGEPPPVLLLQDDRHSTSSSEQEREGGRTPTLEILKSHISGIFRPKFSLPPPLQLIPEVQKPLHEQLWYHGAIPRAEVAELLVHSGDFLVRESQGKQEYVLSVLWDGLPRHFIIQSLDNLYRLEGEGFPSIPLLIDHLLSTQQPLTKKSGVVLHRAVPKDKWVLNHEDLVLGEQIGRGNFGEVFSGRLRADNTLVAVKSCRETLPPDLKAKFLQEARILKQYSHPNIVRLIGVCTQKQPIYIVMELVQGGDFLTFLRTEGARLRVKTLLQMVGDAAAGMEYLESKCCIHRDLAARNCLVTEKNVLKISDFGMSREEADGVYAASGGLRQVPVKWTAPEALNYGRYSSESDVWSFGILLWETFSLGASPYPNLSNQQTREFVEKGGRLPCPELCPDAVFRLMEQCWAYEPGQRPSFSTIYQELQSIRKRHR

[8] = target: Tyrosine-protein kinase JAK1 (Homo sapiens) (UniProt P23458); test: Inhibition of human JAK1 domain2 in HL-60 cells lysate assessed as reduction of labeling of acyl-phosphate ATP probe at 100 nM; format: cell-free
Chain of Tyrosine-protein kinase JAK1 (Homo sapiens) (P23458 whole entry, the tested form may be a part): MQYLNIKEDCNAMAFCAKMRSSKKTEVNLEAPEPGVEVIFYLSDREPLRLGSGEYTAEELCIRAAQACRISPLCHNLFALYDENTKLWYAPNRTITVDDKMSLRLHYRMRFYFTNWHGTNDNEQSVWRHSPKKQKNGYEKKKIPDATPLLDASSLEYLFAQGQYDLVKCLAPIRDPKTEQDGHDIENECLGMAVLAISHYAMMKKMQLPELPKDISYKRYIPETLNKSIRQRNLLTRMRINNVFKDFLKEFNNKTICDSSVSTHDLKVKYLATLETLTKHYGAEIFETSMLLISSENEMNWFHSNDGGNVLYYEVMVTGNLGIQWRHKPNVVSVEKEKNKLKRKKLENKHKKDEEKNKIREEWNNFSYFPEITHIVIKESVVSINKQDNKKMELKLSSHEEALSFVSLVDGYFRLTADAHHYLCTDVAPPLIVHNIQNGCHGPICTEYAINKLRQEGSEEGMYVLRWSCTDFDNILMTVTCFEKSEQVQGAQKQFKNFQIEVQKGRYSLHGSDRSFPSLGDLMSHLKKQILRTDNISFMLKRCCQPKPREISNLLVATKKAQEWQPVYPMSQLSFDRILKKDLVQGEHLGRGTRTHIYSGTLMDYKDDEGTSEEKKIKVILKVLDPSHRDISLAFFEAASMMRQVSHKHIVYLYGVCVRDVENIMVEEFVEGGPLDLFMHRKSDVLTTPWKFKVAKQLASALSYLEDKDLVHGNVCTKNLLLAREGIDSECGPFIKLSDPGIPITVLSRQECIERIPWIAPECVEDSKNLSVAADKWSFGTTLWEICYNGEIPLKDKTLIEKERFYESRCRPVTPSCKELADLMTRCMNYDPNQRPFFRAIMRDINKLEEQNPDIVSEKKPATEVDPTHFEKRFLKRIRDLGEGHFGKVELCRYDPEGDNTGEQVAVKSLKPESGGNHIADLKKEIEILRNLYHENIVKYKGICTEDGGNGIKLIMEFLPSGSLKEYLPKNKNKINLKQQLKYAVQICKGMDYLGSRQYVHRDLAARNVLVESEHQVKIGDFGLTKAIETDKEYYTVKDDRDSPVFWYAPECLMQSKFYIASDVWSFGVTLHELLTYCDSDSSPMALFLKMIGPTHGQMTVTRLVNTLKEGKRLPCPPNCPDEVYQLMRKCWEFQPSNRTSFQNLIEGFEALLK

[9] = target: Mitogen-activated protein kinase kinase kinase kinase 4 (Homo sapiens) (UniProt O95819); test: Inhibition of human ZC1/HGK in HL-60 cells lysate assessed as reduction of labeling of acyl-phosphate ATP probe at 100 nM; format: cell-free
Chain of Mitogen-activated protein kinase kinase kinase kinase 4 (Homo sapiens) (O95819 2-1239 limits assumed): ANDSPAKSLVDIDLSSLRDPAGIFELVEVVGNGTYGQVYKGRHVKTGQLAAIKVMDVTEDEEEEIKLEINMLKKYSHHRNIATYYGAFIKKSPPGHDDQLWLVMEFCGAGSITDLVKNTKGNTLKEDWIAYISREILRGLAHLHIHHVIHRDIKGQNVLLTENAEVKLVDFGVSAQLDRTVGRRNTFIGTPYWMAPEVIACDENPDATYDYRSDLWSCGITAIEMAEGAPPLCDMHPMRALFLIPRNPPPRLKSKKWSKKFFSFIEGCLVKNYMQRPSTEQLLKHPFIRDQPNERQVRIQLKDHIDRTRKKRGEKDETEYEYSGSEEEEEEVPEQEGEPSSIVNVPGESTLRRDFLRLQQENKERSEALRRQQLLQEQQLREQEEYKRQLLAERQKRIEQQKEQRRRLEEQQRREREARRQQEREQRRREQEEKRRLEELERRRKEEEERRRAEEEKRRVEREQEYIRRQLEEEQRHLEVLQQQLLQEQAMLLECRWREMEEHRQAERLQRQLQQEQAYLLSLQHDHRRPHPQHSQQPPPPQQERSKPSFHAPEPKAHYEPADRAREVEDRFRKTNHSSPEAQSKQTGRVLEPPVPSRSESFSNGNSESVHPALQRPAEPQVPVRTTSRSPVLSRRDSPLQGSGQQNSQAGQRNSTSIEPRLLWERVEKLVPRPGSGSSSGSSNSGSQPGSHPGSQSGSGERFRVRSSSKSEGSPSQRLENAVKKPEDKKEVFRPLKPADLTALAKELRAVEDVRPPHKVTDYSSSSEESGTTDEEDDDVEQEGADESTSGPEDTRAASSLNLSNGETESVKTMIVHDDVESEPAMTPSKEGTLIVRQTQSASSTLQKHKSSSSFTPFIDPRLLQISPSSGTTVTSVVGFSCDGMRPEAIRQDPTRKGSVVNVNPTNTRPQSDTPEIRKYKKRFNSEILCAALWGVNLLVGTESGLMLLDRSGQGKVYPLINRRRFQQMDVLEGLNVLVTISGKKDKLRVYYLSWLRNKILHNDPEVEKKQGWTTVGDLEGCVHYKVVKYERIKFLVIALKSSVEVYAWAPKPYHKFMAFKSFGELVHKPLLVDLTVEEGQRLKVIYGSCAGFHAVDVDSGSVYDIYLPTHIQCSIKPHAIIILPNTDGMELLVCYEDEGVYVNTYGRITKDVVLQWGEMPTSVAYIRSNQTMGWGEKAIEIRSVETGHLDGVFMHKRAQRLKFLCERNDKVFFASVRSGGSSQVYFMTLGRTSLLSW

[10] = target: Cyclin-dependent kinase 13 (Homo sapiens) (UniProt Q14004); test: Inhibition of human CHED in HL-60 cells lysate assessed as reduction of labeling of acyl-phosphate ATP probe at 100 nM; format: cell-free
[11] = target: Serine/threonine-protein kinase Nek7 (Homo sapiens) (UniProt Q8TDX7); test: Inhibition of human NEK7 in HL-60 cells lysate assessed as reduction of labeling of acyl-phosphate ATP probe at 100 nM; format: cell-free
Chain of Serine/threonine-protein kinase Nek7 (Homo sapiens) (Q8TDX7 whole entry, looked up, the tested form may be a part): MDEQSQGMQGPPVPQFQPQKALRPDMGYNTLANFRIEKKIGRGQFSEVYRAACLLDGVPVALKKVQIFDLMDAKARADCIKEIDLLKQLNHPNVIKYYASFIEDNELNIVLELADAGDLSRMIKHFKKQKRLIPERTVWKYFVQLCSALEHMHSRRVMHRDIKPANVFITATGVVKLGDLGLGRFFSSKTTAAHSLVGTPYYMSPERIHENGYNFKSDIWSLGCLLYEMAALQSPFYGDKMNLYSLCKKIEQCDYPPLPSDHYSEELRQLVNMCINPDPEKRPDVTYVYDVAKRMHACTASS

[12] = target: Phosphatidylinositol 4-phosphate 3-kinase C2 domain-containing subunit beta (Homo sapiens) (UniProt O00750); test: Inhibition of human PIK3C2B in HL-60 cells lysate assessed as reduction of labeling of acyl-phosphate ATP probe at 100 nM; format: cell-free

Row | Structure (SMILES) | inhibition [1] | inhibition [2] | inhibition [3] | inhibition [4] | MIC [5] | inhibition [6] | inhibition [7] | inhibition [8] | inhibition [9] | inhibition [10] | inhibition [11] | inhibition [12]
1 | C[C@H]1COc2c(NCCCn3cccn3)c(F)c(N)c3c(=O)c(C#N)cn1c23 | < 35% | < 35% | < 35% | < 35% | > 306 µM | < 35% | < 35% | < 35% | < 35% | < 35% | < 35% | < 35%
2 | C[C@H]1COc2c(NCCCc3ccccn3)c(F)c(N)c3c(=O)c(C#N)cn1c23 | < 35% | < 35% | < 35% | < 35% | > 298 µM | < 35% | < 35% | < 35% | < 35% | < 35% | < 35% | < 35%
3 | C[C@H]1COc2c(NCCCn3cccn3)c(F)c(N)c3c(=O)c(C(=O)O)cn1c23 | < 35% | < 35% | < 35% | < 35% | 20 µM (≈ 8.03 µg/mL) | < 35% | < 35% | < 35% | < 35% | < 35% | < 35% | < 35%
4 | C[C@H]1COc2c(NCCCc3ccccn3)c(F)c(N)c3c(=O)c(C(=O)O)cn1c23 | < 35% | < 35% | < 35% | < 35% | 19 µM (≈ 7.84 µg/mL) | < 35% | < 35% | < 35% | < 35% | < 35% | < 35% | < 35%
